The subject of series [1] is HCV replicon (Huh-Luc cells, NS3-NS5B regions of HCV type 1b). Description: HCV replicon assay (Huh-7 luc/neo, luciferase readout). Format: cell-based. The conditions noted are these: Huh-Luc replicon cells, three days incubation, luciferase activity, average if tested more than once, read-out: HCV-REP-HUH7LUC_EC50. From the text: The in vitro antiviral activity against HCV of the compounds of formula I can be tested in a cellular HCV replicon system based on Lohmann et al. (1999) Science 285:110-113, with the further modifications described by Krieger et al. (2001) Journal of Virology 75: 4614-4624 (incorporated herein by reference), which is further exemplified in the examples section. This model, while not a complete infection model for HCV, is widely accepted as the most robust and efficient model of autonomous HCV RNA replication currently available. It will be appreciated that it is important to distinguish between compounds that specifically interfere with HCV functions from those that exert cytotoxic or cytostatic effects in the HCV replicon model, and as a consequence cause a decrease in HCV RNA or linked reporter enzyme concentration. Assays are known in the field for the evaluation of cellular cytotoxicity based for example on the activity of mitochondrial enzymes using fluorogenic redox dyes such as resazurin. Furthermore, cellular counter screens exist for the evaluation of non-selective inhibition of linked reporter gene activity, such as firefly luciferase. Appropriate cell types can be equipped by stable transfection with a luciferase reporter gene whose expression is dependent on a constitutively active gene promoter, and such cells can be used as a counter-screen to eliminate non-selective inhibitors.
The compounds of formula (I) were examined for inhibitory activity in the HCV replicon. This cellular assay is based on a bicistronic expression construct, as described by Lohmann et al. (1999) Science vol. 285 pp. 110-113 with modifications described by Krieger et al. (2001) Journal of Virology 75: 4614-4624, in a multi-target screening strategy.
The assay utilized the stably transfected cell line Huh-7 luc/neo (hereafter referred to as Huh-Luc). This cell line harbors an RNA encoding a bicistronic expression construct comprising the wild type NS3-NS5B regions of HCV type 1b translated from an
Internal Ribosome Entry Site (IRES) from encephalomyocarditis virus (EMCV), preceded by a reporter portion (FfL-luciferase), and a selectable marker portion (neo^R, neomycine phosphotransferase). The construct is flanked by 5′ and 3′ NTRs (non-translated regions) from HCV type 1b. Continued culture of the replicon cells in the presence of G418 (neo^R) is dependent on the replication of the HCV RNA. The stably transfected replicon cells that express HCV RNA, which replicates autonomously and to high levels, encoding inter alia luciferase, were used for screening the antiviral compounds.
The replicon cells were plated in 384 well plates in the presence of the test and control compounds which were added in various concentrations. Following an incubation of three days, HCV replication was measured by assaying luciferase activity (using standard luciferase assay substrates and reagents and a Perkin Elmer ViewLux™ ultraHTS microplate imager). Replicon cells in the control cultures have high luciferase expression in the absence of any inhibitor. The inhibitory activity of the compound on luciferase activity was monitored on the Huh-Luc cells, enabling a dose-response curve for each test compound. EC50 values were then calculated, which represent the amount of compound required to decrease the level of detected luciferase activity by 50%, or more specifically, to reduce the ability of the genetically linked HCV replicon RNA to replicate.
Where a compound of formula (I) was tested more than once in the replicon assay, the average of all test results is given in this Table 1.
For orientation: Replicon systems follow genome replication, usually without infectious particles.

The test system of a further series is LLC-MDR1 monolayers. It counts as in vitro ADME. The conditions noted are these: pig, LLC-PK1, 120 min. Here is the method: Assay Description for the Measurement of Transepithelial Transport of Test Compounds Through LLC-MDR1 Monolayers
The integrity of the cellular monolayer was assessed in each incubation well through the inclusion of the fluorescent, low permeability marker compound, Fluorescein.
In detail, LLC-MDR1 cells (LLC-PK1 cells stably transduced with MDR1 in a trans-well system) were seeded on 24-well cell culture inserts (Millicell®-PCF, 0.4 μm, 13 mm Ø, 0.7 cm^2) at 400 000 cells/cm^2. Cell culture medium consists of Medium 199 supplemented with 10% Fetal Bovine Serum (FBS) and 100 U/mL Penicillin/streptomycin and was replaced the day after seeding and the day before the experiment. The transport experiment was performed 5 days after seeding. On the day of the experiment, solutions of the test compounds were applied to the apical side of the monolayers to assess transport in the AtoB direction,. The medium used in the assay was (OPTI-MEM (1×) (GIBCO) with 1 w/v % Bovine Serum Albumin. Inserts were incubated at 37° C. in a humidified incubator containing 5% CO2. Samples from the acceptor and donor compartments were collected after an incubation time of 120 min, to assess the permeability and to allow estimation of the test compound recovery during the experiment, respectively. Transport experiments were performed in triplicate. Absolute test compound concentrations were measured using LC-MS/MS and quantified via a calibration curve.

Here are results for 15 molecules from patent US8815849B2, “Hetero-bicyclic derivatives as HCV inhibitors” (Janssen R&D Ireland, priority 2010, dated 2014).

Like-named read-outs stand apart in the source and are kept apart here.

`COC(=O)N[C@H](C(=O)N1CCCC1c1[nH]c2cc(-c3ccc4cc(-c5cnc([C@@H]6CCCN6C(=O)[C@@H](NC(=O)OC)C(C)C)[nH]5)ccc4c3)ccc2c(=O)c1C)C(C)C` (single isomer, unassigned) [Compound 102a]: the EC50 in series [1] (Hepatitis C virus, Huh-7, 72 h) was found to be 0.069 nM. In addition, in the series with LLC-MDR1 monolayers, the “A->B permeability (Papp × 10^−6 cm/sec) in the presence the P-gp inhibitor GF120918” value is given as <0.6 10^−6 cm/sec.

For the molecule `COC(=O)N[C@H](C(=O)N1CCC[C@H]1c1ncc(-c2ccc3cc(-c4ccc5c(=O)[nH]c([C@@H]6CCCN6C(=O)[C@@H](NC(=O)OC)C(C)C)nc5c4)ccc3c2)[nH]1)C(C)C` [Compound 44], the EC50 in series [1] (Hepatitis C virus, Huh-7, 72 h) is 0.005 nM. Moreover, the “A->B permeability (Papp × 10^−6 cm/sec) in the presence the P-gp inhibitor GF120918” value with LLC-MDR1 monolayers is reported as 6.9 10^−6 cm/sec.

Regarding `CC[C@H](C)[C@H](NC(=O)OC)C(=O)N1CCCC1c1cc(=O)c2ccc(-c3ccc4cc(-c5cnc([C@@H]6CCCN6C(=O)[C@@H](NC(=O)OC)C(C)C)[nH]5)ccc4c3)cc2[nH]1` (some centres unmarked) [Compound 13-A3], the “A->B permeability (Papp × 10^−6 cm/sec) in the presence the P-gp inhibitor GF120918” value with LLC-MDR1 monolayers is 0.9 10^−6 cm/sec.

Take `COC(=O)N[C@H](C(=O)N1CCCCC1c1cc(=O)c2ccc(-c3ccc4cc(-c5cnc([C@@H]6CCCN6C(=O)[C@@H](NC(=O)OC)C(C)C)[nH]5)ccc4c3)cc2[nH]1)C(C)C` (some centres unmarked) [Compound 76]: the EC50 in series [1] (Hepatitis C virus, Huh-7, 72 h) is 0.034 nM. Also, the “A->B permeability (Papp × 10^−6 cm/sec) in the presence the P-gp inhibitor GF120918” value in the series on LLC-MDR1 monolayers is reported as 3.1 10^−6 cm/sec.

With `COC(=O)N[C@H](C(=O)N1CCCC1c1[nH]c2cc(-c3ccc4cc(-c5cnc([C@@H]6CCCN6C(=O)[C@@H](NC(=O)OC)C(C)C)[nH]5)ccc4c3)ccc2c(=O)c1F)C(C)C` (single isomer, unassigned) [Compound 110a], the EC50 in series [1] was found to be 0.048 nM. For the same molecule, the “A->B permeability (Papp × 10^−6 cm/sec) in the presence the P-gp inhibitor GF120918” value in the series on LLC-MDR1 monolayers is 0.4 10^−6 cm/sec.

On to `COC(=O)N[C@H](C(=O)N1CCC[C@H]1c1ncc(-c2ccc3cc(-c4ccc5c(c4)NC([C@@H]4CCCN4C(=O)[C@H](NC(=O)OC)c4ccccc4)=NS5(=O)=O)ccc3c2)[nH]1)C(C)C` [Compound 87], for which the EC50 in series [1] (Hepatitis C virus, Huh-7, 72 h) came out at 0.008 nM. Moreover, the “A->B permeability (Papp × 10^−6 cm/sec) in the presence the P-gp inhibitor GF120918” value in the series with LLC-MDR1 monolayers is 1.0 10^−6 cm/sec.

In the case of `COC(=O)N[C@H](C(=O)N1CCC[C@H]1C1=Nc2cc(-c3ccc4cc(-c5cnc([C@@H]6CCCN6C(=O)[C@@H](NC(=O)OC)C(C)C)[nH]5)ccc4c3)ccc2C2(COC2)N1)C(C)C` [Compound 70], the EC50 in series [1] (Hepatitis C virus, Huh-7, 72 h) was 0.009 nM. For the same molecule, the “A->B permeability (Papp × 10^−6 cm/sec) in the presence the P-gp inhibitor GF120918” value with LLC-MDR1 monolayers is 7.8 10^−6 cm/sec.

With `COC(=O)N[C@H](C(=O)N1CCC[C@H]1c1ncc(-c2ccc3cc(-c4ccc5c(=O)[nH]c([C@@H]6CCCN6C(=O)[C@H](NC(=O)OC(C)(C)C)c6ccccc6)nc5c4)ccc3c2)[nH]1)C(C)C` [Compound 44-1], in series [1] (Hepatitis C virus, Huh-7, 72 h), the EC50 came to 8.1 nM. Also, in the series on LLC-MDR1 monolayers, the “A->B permeability (Papp × 10^−6 cm/sec) in the presence the P-gp inhibitor GF120918” value is 2.7 10^−6 cm/sec.

As for `COC(=O)N[C@H](C(=O)N1CCCC1c1[nH]c2cc(-c3ccc4cc(-c5cnc([C@@H]6CCCN6C(=O)[C@@H](NC(=O)OC)C(C)C)[nH]5)ccc4c3)ccc2c(=O)c1F)C(C)C` (single isomer, unassigned) [Compound 110b], the EC50 in series [1] was determined as 0.48 nM. Moreover, the “A->B permeability (Papp × 10^−6 cm/sec) in the presence the P-gp inhibitor GF120918” value in the series on LLC-MDR1 monolayers is on record as 2.3 10^−6 cm/sec.

Consider `COC(=O)N[C@H](C(=O)N1CCC[C@H]1C1=Nc2cc(-c3ccc4cc(-c5cnc([C@@H]6CCCN6C(=O)[C@@H](NC(=O)OC)C(C)C)[nH]5)ccc4c3)ccc2C(C)(C)N1)C(C)C` [Compound 61], for which, in series [1] (Hepatitis C virus, Huh-7, 72 h), the EC50 was 0.017 nM. Further, the “A->B permeability (Papp × 10^−6 cm/sec) in the presence the P-gp inhibitor GF120918” value in the series on LLC-MDR1 monolayers is reported as 4.8 10^−6 cm/sec.

With `COC(=O)N[C@H](C(=O)N1CCC[C@H]1C1=NS(=O)(=O)c2ccc(-c3ccc4cc(-c5cnc([C@@H]6CCCN6C(=O)[C@@H](NC(=O)OC)C(C)C)[nH]5)ccc4c3)cc2N1)C(C)C` [Compound 84], the EC50 in series [1] (Hepatitis C virus, Huh-7, 72 h) turned out to be 0.034 nM. In addition, in the series with LLC-MDR1 monolayers, the “A->B permeability (Papp × 10^−6 cm/sec) in the presence the P-gp inhibitor GF120918” value is reported as 0.4 10^−6 cm/sec.

As to `COC(=O)N[C@H](C(=O)N1CCC[C@H]1c1ncc(-c2ccc3cc(-c4ccc5c(=O)[nH]c([C@@H]6CC(C)(C)CN6C(=O)[C@@H](NC(=O)OC)C(C)C)nc5c4)ccc3c2)[nH]1)C(C)C` [Compound 50], the EC50 in series [1] (Hepatitis C virus, Huh-7, 72 h) was found to be 0.006 nM. Moreover, the “A->B permeability (Papp × 10^−6 cm/sec) in the presence the P-gp inhibitor GF120918” value in the series with LLC-MDR1 monolayers is given as 5.8 10^−6 cm/sec.

In the case of `COC(=O)N[C@H](C(=O)N1CCC[C@H]1c1ncc(-c2ccc3cc(-c4ccc5nc([C@@H]6CCCN6C(=O)[C@@H](NC(=O)OC)C(C)C)[nH]c(=O)c5c4)ccc3c2)[nH]1)C(C)C` [Compound 35], the EC50 in series [1] (Hepatitis C virus, Huh-7, 72 h) came to 0.64 nM. Besides, the “A->B permeability (Papp × 10^−6 cm/sec) in the presence the P-gp inhibitor GF120918” value in the series on LLC-MDR1 monolayers is listed as 5.0 10^−6 cm/sec.

For `COC(=O)N[C@H](C(=O)N1CCCC1c1cc(=O)c2ccc(-c3ccc4cc(-c5cnc([C@@H]6CCCN6C(=O)[C@@H](NC(=O)OC)C(C)C)[nH]5)ccc4c3)cc2[nH]1)C(C)C` (single isomer, unassigned) [Compound 13b], the EC50 in series [1] (Hepatitis C virus, Huh-7, 72 h) turned out to be 0.022 nM. Moreover, the “A->B permeability (Papp × 10^−6 cm/sec) in the presence the P-gp inhibitor GF120918” value in the series on LLC-MDR1 monolayers is recorded as 0.5 10^−6 cm/sec.

For the molecule `COC(=O)N[C@H](C(=O)N1CCC[C@H]1c1ncc(-c2ccc3cc(-c4ccc5c(=O)[nH]c([C@@H]6CCCN6C(=O)[C@H](NC(=O)OC)c6ccccc6)nc5c4)ccc3c2)[nH]1)C(C)C` [Compound 44-2], the EC50 in series [1] (Hepatitis C virus, Huh-7, 72 h) is 0.084 nM. Further, in the series with LLC-MDR1 monolayers, the “A->B permeability (Papp × 10^−6 cm/sec) in the presence the P-gp inhibitor GF120918” value is on record as 5.5 10^−6 cm/sec.
